One may read the EC50 as the concentration giving half of the maximal effect. Low values mean an effect from little substance, high ones a need for much substance.

Bounds are passed on as bounds.

Experiment [1] concerns the target Cyclin-dependent kinase 13 (Homo sapiens, UniProt Q14004). Briefly: Selectivity interaction (KinomeScan (DiscoverX)) EUB0001619a CDK13. The conditions noted are these: at 1 µM.
Experiment [2] deals with T1, Serine/threonine-protein kinase STK11 (Homo sapiens) (UniProt Q15831).
T1 sequence (whole entry): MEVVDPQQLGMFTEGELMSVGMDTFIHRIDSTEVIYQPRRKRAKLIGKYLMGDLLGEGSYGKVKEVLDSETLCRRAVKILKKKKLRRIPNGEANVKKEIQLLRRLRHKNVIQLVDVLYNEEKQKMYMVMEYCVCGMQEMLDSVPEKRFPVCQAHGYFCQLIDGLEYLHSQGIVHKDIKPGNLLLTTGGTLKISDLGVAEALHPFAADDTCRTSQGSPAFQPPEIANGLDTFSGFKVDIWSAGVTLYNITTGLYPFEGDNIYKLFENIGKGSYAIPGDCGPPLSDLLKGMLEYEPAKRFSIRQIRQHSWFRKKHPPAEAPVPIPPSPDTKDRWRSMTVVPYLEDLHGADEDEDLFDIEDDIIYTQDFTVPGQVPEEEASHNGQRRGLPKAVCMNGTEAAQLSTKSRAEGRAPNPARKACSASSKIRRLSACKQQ
Briefly: Selectivity interaction (KinomeScan (DiscoverX)) EUB0001619a STK11. The conditions noted are these: at 1 µM.

Experiment [3] deals with Serine/threonine-protein kinase 25 (Homo sapiens) (UniProt O00506). Briefly: Selectivity interaction (ActivX KiNativ screen (ex vivo kinase selectivity in human PBMCs)) EUB0001619a STK25. It is filed as cell-based. The following applies: PBMC, at 1 µM.
Sequence of Serine/threonine-protein kinase 25 (Homo sapiens) (O00506 whole entry, looked up): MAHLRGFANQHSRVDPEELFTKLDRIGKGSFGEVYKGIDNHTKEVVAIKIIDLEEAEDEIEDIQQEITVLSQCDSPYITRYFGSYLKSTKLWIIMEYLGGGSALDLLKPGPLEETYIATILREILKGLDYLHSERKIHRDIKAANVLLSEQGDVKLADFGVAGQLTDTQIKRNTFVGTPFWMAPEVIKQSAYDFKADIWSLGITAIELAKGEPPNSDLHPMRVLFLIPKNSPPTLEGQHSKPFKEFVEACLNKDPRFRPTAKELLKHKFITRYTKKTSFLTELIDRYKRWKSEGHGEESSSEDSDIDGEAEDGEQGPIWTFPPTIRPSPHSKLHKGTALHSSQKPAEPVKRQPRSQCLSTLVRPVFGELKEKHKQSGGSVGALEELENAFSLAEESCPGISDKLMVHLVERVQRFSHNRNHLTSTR
The target of experiment [4] is Ephrin type-A receptor 5 (Homo sapiens) (UniProt P54756). The experiment is described as follows: Selectivity interaction (KinomeScan (DiscoverX)) EUB0000607a EPHA5. The following applies: at 10 µM.
For experiment [5], the target named is Rho-associated protein kinase 1 (Homo sapiens) (UniProt Q13464). The experiment is described as follows: Selectivity interaction (ActivX KiNativ screen (kinase selectivity in THP-1 cell lysates)) EUB0000639a ROCK1. The experiment is classed as subcellular. The conditions noted are these: lysate.
Sequence of Rho-associated protein kinase 1 (Homo sapiens) (Q13464 2-1354 limits assumed): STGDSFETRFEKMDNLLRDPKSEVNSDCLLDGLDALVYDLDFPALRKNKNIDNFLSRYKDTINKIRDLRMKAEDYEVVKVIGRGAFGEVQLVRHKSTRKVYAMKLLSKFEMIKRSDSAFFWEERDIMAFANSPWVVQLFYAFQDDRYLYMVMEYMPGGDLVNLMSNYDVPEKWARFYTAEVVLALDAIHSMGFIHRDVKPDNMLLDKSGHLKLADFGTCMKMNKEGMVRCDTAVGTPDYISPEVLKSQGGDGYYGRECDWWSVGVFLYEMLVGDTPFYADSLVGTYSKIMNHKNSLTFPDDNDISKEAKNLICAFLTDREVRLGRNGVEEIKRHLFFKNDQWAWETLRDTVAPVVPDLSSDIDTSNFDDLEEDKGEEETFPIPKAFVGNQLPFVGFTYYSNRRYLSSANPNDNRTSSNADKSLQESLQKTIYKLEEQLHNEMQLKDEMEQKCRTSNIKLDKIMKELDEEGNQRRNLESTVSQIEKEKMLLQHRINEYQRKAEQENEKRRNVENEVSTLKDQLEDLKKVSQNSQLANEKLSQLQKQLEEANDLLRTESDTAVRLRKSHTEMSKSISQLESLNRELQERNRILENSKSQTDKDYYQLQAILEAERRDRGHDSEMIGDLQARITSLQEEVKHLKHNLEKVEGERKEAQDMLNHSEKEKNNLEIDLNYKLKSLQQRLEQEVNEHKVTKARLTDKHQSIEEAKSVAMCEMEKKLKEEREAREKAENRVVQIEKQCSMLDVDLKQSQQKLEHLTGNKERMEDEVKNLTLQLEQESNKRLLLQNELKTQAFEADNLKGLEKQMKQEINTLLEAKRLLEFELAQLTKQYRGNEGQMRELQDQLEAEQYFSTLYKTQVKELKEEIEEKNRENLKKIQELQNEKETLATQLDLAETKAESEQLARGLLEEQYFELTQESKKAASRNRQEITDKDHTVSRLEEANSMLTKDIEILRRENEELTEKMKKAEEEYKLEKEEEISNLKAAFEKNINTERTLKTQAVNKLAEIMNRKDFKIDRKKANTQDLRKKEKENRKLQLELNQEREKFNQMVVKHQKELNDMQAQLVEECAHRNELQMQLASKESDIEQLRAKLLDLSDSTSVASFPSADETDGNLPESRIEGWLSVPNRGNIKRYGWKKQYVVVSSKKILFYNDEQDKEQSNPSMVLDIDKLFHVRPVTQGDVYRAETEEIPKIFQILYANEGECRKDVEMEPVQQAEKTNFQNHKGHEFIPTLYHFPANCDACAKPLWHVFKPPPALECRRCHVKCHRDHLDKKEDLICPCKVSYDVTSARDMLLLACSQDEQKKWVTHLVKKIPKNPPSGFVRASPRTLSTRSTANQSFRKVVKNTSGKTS
Experiment [6] has as its target Serine/threonine-protein kinase mTOR (Homo sapiens, UniProt P42345). The experiment is described as follows: Selectivity interaction (ProQinase) EUB0000171b MTOR.
Experiment [7] concerns the target Serine/threonine-protein kinase 35 (Homo sapiens) (UniProt Q8TDR2). Briefly: Selectivity interaction (Ambit KINOMEscan and KiNATiv profiling in Jurkat cells) EUB0000090b STK35. The following applies: at 1 µM. The experiment is classed as cell-based.
For experiment [8], the target named is Serine/threonine-protein kinase 32A (Homo sapiens) (UniProt Q8WU08). The experiment is described as follows: Selectivity interaction (KinomeScan (DiscoverX)) EUB0000655a STK32A. The following applies: at 10 µM.
Experiment [9] has as its target Cyclin-dependent kinase 3 (Homo sapiens) (UniProt Q00526). Briefly: Selectivity interaction (KinomeScan (DiscoverX)) EUB0000092b CDK3. The conditions noted are these: at 10 µM.
In experiment [10] the target is Tyrosine-protein kinase FRK (Homo sapiens) (UniProt P42685). Briefly: Selectivity interaction (KinomeScan (DiscoverX)) EUB0000092b FRK. The following applies: at 10 µM.
Experiment [11] concerns the target T2, Serine/threonine-protein kinase TAO1 (Homo sapiens) (UniProt Q7L7X3).
T2 sequence (whole entry): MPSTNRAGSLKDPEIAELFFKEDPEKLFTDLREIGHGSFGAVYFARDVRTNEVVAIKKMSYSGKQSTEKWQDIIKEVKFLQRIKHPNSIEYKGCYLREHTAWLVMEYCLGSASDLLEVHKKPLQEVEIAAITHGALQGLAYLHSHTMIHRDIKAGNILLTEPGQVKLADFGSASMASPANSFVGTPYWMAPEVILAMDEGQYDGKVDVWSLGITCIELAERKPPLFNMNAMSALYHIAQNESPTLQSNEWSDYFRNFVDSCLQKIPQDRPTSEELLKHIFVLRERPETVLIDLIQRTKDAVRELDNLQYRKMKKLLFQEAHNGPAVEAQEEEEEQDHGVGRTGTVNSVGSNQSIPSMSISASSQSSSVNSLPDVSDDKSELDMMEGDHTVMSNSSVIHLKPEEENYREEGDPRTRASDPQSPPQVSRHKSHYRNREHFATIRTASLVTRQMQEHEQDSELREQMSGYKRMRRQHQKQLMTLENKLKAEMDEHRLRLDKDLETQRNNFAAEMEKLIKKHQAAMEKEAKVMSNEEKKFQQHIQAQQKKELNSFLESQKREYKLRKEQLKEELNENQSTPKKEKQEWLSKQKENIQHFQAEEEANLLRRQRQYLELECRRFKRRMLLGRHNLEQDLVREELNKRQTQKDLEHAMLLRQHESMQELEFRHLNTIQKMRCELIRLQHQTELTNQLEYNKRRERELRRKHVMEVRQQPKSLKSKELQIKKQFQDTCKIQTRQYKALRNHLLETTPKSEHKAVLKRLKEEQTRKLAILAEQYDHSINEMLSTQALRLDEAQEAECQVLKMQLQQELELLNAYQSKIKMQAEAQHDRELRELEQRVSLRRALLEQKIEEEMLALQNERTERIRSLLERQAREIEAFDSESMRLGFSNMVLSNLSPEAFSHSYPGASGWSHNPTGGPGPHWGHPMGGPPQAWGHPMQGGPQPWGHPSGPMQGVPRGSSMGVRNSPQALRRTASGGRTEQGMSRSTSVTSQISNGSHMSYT
The experiment is described as follows: Selectivity interaction (KinomeScan (DiscoverX)) EUB0000092b TAOK1. The following applies: at 10 µM.

Experiment [12] has as its target Tyrosine-protein kinase JAK1 (Homo sapiens, UniProt P23458). The experiment is described as follows: Selectivity interaction (NanoBRET assay (HEK293T cells)) EUB0001558a JAK1. It is filed as cell-based, HEK-293T.
Experiment [13] has as its target T3, Dual specificity mitogen-activated protein kinase kinase 3 (Homo sapiens) (UniProt P46734).
T3 sequence (whole entry): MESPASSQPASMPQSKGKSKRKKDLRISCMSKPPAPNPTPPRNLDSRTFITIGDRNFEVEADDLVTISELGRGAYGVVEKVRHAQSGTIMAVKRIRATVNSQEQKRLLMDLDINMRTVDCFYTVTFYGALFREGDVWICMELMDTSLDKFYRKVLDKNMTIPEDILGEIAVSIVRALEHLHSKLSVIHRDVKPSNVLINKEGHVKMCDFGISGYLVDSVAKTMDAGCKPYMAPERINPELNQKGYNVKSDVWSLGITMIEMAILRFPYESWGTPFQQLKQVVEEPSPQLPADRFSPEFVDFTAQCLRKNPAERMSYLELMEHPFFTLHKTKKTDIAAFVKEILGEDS
Briefly: Selectivity interaction (KinomeScan (DiscoverX)) EUB0001079a MAP2K3. The following applies: at 1 µM.

In experiment [14] the target is Phosphorylase b kinase gamma catalytic chain, skeletal muscle/heart isoform (Homo sapiens) (UniProt Q16816). Briefly: Selectivity interaction (KinomeScan (DiscoverX)) EUB0000229b PHKG1. The conditions noted are these: at 10 µM.
Sequence of Phosphorylase b kinase gamma catalytic chain, skeletal muscle/heart isoform (Homo sapiens) (Q16816 whole entry, looked up, canonical isoform): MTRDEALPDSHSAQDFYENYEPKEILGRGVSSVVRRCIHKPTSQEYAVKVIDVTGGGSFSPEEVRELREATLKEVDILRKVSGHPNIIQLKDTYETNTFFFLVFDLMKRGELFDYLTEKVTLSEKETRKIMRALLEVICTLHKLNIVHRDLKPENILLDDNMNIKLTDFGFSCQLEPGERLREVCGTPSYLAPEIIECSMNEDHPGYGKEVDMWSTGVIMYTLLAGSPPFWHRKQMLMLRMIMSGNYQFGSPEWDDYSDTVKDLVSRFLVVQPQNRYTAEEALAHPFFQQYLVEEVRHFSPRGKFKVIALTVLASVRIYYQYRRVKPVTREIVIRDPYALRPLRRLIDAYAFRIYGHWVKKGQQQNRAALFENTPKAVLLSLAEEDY
The target of experiment [15] is Tyrosine-protein kinase ABL1 (Homo sapiens, UniProt P00519). The experiment is described as follows: Selectivity interaction (Kinase panel (KiNativ target engagement assay in Jurkat cells)) EUB0001635a ABL1. The following applies: Selectivity number of off-targets 0.0, Selectivity number of targets 233.0, Source Knowledge https://www.sciencedirect.com/science/article/pii/S2451945619300674?via%3Dihub, at 1 µM. It is filed as cell-based.

Sequence of Cyclin-dependent kinase 13 (Q14004 whole entry, looked up): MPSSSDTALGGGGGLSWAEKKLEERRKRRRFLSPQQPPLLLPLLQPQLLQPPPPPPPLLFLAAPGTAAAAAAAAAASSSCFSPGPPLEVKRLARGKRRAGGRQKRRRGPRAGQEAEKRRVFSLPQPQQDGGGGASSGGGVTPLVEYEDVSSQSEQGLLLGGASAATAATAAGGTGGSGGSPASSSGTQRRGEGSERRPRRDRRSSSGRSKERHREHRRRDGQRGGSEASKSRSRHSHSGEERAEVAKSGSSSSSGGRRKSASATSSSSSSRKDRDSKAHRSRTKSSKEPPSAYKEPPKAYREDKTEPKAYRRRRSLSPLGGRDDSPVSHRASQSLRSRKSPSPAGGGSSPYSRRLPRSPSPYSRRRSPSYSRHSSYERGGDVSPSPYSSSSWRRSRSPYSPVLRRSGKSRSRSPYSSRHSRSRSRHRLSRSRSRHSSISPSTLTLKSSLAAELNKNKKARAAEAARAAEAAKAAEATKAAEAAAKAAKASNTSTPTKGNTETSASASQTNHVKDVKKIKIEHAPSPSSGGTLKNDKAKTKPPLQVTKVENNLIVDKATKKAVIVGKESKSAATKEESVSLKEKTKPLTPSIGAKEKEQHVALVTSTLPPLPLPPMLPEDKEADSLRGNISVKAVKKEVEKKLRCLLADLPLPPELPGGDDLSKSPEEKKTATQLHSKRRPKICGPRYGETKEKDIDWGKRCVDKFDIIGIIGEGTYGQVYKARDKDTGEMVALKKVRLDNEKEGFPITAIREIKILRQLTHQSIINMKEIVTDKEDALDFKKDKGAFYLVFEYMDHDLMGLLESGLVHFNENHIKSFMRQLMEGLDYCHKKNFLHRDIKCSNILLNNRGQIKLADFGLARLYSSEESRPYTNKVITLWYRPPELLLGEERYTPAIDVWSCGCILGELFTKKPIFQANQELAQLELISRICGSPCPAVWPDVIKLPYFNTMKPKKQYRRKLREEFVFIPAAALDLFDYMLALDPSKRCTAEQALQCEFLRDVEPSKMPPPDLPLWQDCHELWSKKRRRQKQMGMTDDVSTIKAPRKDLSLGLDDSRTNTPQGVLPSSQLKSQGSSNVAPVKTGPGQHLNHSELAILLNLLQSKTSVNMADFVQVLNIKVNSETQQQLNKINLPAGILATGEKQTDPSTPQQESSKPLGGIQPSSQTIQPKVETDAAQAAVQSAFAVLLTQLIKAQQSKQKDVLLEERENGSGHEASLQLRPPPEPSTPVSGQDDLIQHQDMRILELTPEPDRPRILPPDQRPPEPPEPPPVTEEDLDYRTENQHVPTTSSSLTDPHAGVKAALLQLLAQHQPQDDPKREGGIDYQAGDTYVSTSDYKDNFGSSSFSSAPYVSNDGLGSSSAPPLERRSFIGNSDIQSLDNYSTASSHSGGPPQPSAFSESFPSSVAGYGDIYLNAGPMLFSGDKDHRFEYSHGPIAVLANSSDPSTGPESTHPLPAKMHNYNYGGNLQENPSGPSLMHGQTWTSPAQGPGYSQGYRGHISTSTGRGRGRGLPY
Sequence of Tyrosine-protein kinase JAK1 (P23458 whole entry): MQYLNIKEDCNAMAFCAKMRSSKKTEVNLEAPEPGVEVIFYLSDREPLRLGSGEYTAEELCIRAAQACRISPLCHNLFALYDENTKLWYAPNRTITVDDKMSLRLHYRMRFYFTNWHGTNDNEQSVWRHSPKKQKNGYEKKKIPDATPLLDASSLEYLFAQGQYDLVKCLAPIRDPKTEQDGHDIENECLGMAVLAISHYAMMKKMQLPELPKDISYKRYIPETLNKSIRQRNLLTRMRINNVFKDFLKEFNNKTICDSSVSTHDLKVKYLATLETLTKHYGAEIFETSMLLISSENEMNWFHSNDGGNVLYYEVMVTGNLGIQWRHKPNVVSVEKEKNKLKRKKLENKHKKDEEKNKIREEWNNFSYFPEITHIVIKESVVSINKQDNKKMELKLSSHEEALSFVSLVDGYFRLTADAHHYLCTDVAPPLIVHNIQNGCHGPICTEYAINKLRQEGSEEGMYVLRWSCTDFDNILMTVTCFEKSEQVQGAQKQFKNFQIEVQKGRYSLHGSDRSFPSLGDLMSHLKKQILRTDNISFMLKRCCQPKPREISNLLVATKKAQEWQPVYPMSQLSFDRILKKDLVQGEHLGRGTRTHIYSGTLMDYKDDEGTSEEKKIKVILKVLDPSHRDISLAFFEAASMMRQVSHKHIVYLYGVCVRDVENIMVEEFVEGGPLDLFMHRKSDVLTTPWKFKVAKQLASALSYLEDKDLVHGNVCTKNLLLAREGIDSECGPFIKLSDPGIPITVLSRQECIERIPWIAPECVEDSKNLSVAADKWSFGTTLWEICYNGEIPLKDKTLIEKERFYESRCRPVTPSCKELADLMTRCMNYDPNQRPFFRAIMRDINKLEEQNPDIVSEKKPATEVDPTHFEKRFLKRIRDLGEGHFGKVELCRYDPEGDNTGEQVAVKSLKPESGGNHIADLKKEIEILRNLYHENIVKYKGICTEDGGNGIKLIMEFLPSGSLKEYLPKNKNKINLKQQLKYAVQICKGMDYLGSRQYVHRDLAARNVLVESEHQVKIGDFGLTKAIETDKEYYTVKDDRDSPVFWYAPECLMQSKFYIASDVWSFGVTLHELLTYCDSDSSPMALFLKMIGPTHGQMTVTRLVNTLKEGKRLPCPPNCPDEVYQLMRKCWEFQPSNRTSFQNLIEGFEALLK

Take `N#Cc1cccc(-c2c[nH]c3ncnc(N4CCOCC4)c23)c1`: the % of control in [1] and in experiment [2] was 100% each time. Besides, the % of inhibition in experiment [3] worked out at 61%.
With `CNC(=O)Nc1ccc(-c2nc(N3CC4CCC(C3)O4)c3cnn(C4CCC5(CC4)OCCO5)c3n2)cc1`, the % of control in experiment [4] came out at 92%.
As to `CC[C@@H]1[C@H](F)C(=O)N[C@@H]1COc1nccc2cc(C(N)=O)c(OC)cc12` [ZIMLOVISERTIB], the % of inhibition in experiment [5] (at 0.01 µM) is 12.6%; in [5] (at 0.04 µM), -4.3%; in experiment [5] (at 0.2 µM), -10.6%; in experiment [5] (at 1 µM), 18.3%; in experiment [5] (at 5 µM), 53.9%.
`C=CC(=O)Nc1cccc(C(=O)Nc2ccc(Nc3cc(-c4[nH]c(SC)nc4C)ccn3)cc2)c1`: the % of control turned out to be 88% in experiment [6] (at 1 µM) and 91% in experiment [6] (at 5 µM).
Consider `CN(C)C/C=C/C(=O)Nc1ccc(C(=O)N2CCCC(Nc3ncc(Cl)c(-c4c[nH]c5ccccc45)n3)C2)cc1` (stereo not given), for which the % of control in [7] was 95%.
`CN(C)CCOc1ccc(-c2nc(-c3ccncc3)c(-c3ccc4c(c3)CC/C4=N\O)[nH]2)cc1`: in experiment [8], the % of control came to 85%.
For the compound `CCC(=O)N1CCN(c2ccc(-n3c(=O)ccc4cnc5ccc(-c6cnc7ccccc7c6)cc5c43)cc2C(F)(F)F)CC1`, the results for the % of control in experiment [9], in [10] and in experiment [11] were 100%, 60% and 58%, respectively.
`CC(C)(O)[C@H](F)CN1Cc2cc(NC(=O)c3cnn4cccnc34)c(N3CCOCC3)cc2C1=O` gave an EC50 in [12] above 50 µM.
In turn, `Nc1cnc(N2CCc3cc(S(=O)(=O)Nc4c(F)cc(Cl)cc4F)cc(N4CCCC4=O)c32)nc1` [TP-020n] showed a % of control in [13] of 100%.
As to `COc1cc(N(C)c2ccnc3ccc(C(F)(F)F)cc23)cc(OC)c1OC`, the % binding in experiment [14] was found to be 100%.
As to `C=CC(=O)Nc1ccc(C(=O)Nc2[nH]nc3c2CN(C(=O)N[C@H](CN(C)C)c2ccccc2)C3(C)C)cc1`, the % of engagement in experiment [15] was -12.6%.

Values taken from ChEMBL document CHEMBL5465560, “Selectivity Literature for EUbOPEN Chemogenomic Library” (2024).
